Measured values from PubChem BioAssay (NCI).
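Interpolation was linear, between the two tested concentrations surrounding the appropriate level; five concentrations were tested over 48 hours in 96-well plates. GI50 marks 50% less growth. Definition used: TGI = concentration required for complete inhibition of growth.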

Experiments:
Assay in all cases: NCI tumour cell line growth inhibition, 48 h
PC-3 prostate = system: PC-3 prostate
HCT-116 colon = system: HCT-116 colon
SF-295 CNS = system: SF-295 CNS
MDA-MB-468 breast = system: MDA-MB-468 breast
SNB-19 CNS = system: SNB-19 CNS
SW-620 colon = system: SW-620 colon
UO-31 renal = system: UO-31 renal
HCT-15 colon = system: HCT-15 colon
IGROV1 ovarian = system: IGROV1 ovarian
K-562 leukemia = system: K-562 leukemia
SN12C renal = system: SN12C renal
HOP-92 NSCLC = system: HOP-92 NSCLC
CAKI-1 renal = system: CAKI-1 renal
HOP-62 NSCLC = system: HOP-62 NSCLC
ACHN renal = system: ACHN renal
NCI-H460 lung = system: NCI-H460 lung
UACC-62 melanoma = system: UACC-62 melanoma
786-0 renal = system: 786-0 renal
MOLT-4 leukemia = system: MOLT-4 leukemia
HCC-2998 colon = system: HCC-2998 colon
EKVX NSCLC = system: EKVX NSCLC
SNB-75 CNS = system: SNB-75 CNS
T-47D breast = system: T-47D breast
SK-MEL-2 melanoma = system: SK-MEL-2 melanoma
TK-10 renal = system: TK-10 renal
CCRF-CEM leukemia = system: CCRF-CEM leukemia
M14 melanoma = system: M14 melanoma
RXF 393 renal = system: RXF 393 renal
SK-MEL-28 melanoma = system: SK-MEL-28 melanoma
MDA-MB-231 breast = system: MDA-MB-231 breast
SF-268 CNS = system: SF-268 CNS
SK-OV-3 ovarian = system: SK-OV-3 ovarian
NCI-H522 lung = system: NCI-H522 lung
UACC-257 melanoma = system: UACC-257 melanoma
U251 CNS = system: U251 CNS
HT29 colon = system: HT29 colon
OVCAR-3 ovarian = system: OVCAR-3 ovarian
MCF7 breast = system: MCF7 breast
A549 NSCLC = system: A549 NSCLC
NCI-H226 lung = system: NCI-H226 lung
OVCAR-4 ovarian = system: OVCAR-4 ovarian
MALME-3M melanoma = system: MALME-3M melanoma
OVCAR-8 ovarian = system: OVCAR-8 ovarian
COLO 205 colon = system: COLO 205 colon
OVCAR-5 ovarian = system: OVCAR-5 ovarian
SK-MEL-5 melanoma = system: SK-MEL-5 melanoma
NCI-H23 lung = system: NCI-H23 lung
HS 578T breast = system: HS 578T breast
BT-549 breast = system: BT-549 breast
SF-539 CNS = system: SF-539 CNS
SR leukemia = system: SR leukemia
NCI/ADR-RES ovarian = system: NCI/ADR-RES ovarian
RPMI-8226 leukemia = system: RPMI-8226 leukemia
HL-60(TB) leukemia = system: HL-60(TB) leukemia
A498 renal = system: A498 renal
DU-145 prostate = system: DU-145 prostate

O=C(Nc1ccc(OCC(=O)c2ccccc2)cc1)Nc1ccc(Cl)c(C(F)(F)F)c1
GI50 (PC-3 prostate): 2.83 µM
TGI (PC-3 prostate): > 100 µM
GI50 (HCT-116 colon): 3.69 µM
TGI (HCT-116 colon): > 100 µM
GI50 (SF-295 CNS): 2.74 µM
TGI (SF-295 CNS): 13.5 µM
GI50 (MDA-MB-468 breast): 2.41 µM
TGI (MDA-MB-468 breast): 7.05 µM
GI50 (SNB-19 CNS): 3.16 µM
TGI (SNB-19 CNS): > 100 µM
GI50 (SW-620 colon): 3.74 µM
TGI (SW-620 colon): > 100 µM
GI50 (UO-31 renal): 3.18 µM
TGI (UO-31 renal): > 100 µM
GI50 (HCT-15 colon): 2.92 µM
TGI (HCT-15 colon): > 100 µM
GI50 (IGROV1 ovarian): 4.38 µM
TGI (IGROV1 ovarian): > 100 µM
GI50 (K-562 leukemia): 3.66 µM
TGI (K-562 leukemia): > 100 µM
GI50 (SN12C renal): 3.18 µM
TGI (SN12C renal): > 100 µM
GI50 (HOP-92 NSCLC): 3.48 µM
TGI (HOP-92 NSCLC): 17.5 µM
GI50 (CAKI-1 renal): 3.31 µM
TGI (CAKI-1 renal): > 100 µM
GI50 (HOP-62 NSCLC): 5.76 µM
TGI (HOP-62 NSCLC): 35.2 µM
GI50 (ACHN renal): 3.17 µM
TGI (ACHN renal): > 100 µM
GI50 (NCI-H460 lung): 3.07 µM
TGI (NCI-H460 lung): > 100 µM
GI50 (UACC-62 melanoma): 2.26 µM
TGI (UACC-62 melanoma): 6.2 µM
GI50 (786-0 renal): 4.12 µM
TGI (786-0 renal): 32.5 µM
GI50 (MOLT-4 leukemia): 2.48 µM
TGI (MOLT-4 leukemia): > 100 µM
GI50 (HCC-2998 colon): 3.37 µM
TGI (HCC-2998 colon): > 100 µM
GI50 (EKVX NSCLC): 3.26 µM
TGI (EKVX NSCLC): > 100 µM
GI50 (SNB-75 CNS): 2.27 µM
TGI (SNB-75 CNS): 19.9 µM
GI50 (T-47D breast): 3.13 µM
TGI (T-47D breast): > 100 µM
GI50 (SK-MEL-2 melanoma): 2.07 µM
TGI (SK-MEL-2 melanoma): 4.8 µM
GI50 (TK-10 renal): 6.25 µM
TGI (TK-10 renal): 40.3 µM
GI50 (CCRF-CEM leukemia): 3.54 µM
TGI (CCRF-CEM leukemia): > 100 µM
GI50 (M14 melanoma): 2.97 µM
TGI (M14 melanoma): > 100 µM
GI50 (RXF 393 renal): 2.78 µM
TGI (RXF 393 renal): 14.3 µM
GI50 (SK-MEL-28 melanoma): 2.97 µM
TGI (SK-MEL-28 melanoma): 25.8 µM
GI50 (MDA-MB-231 breast): 2.87 µM
TGI (MDA-MB-231 breast): 11.4 µM
GI50 (SF-268 CNS): 3.51 µM
TGI (SF-268 CNS): > 100 µM
GI50 (SK-OV-3 ovarian): 8.74 µM
TGI (SK-OV-3 ovarian): 60.7 µM
GI50 (NCI-H522 lung): 1.96 µM
TGI (NCI-H522 lung): 6.15 µM
GI50 (UACC-257 melanoma): 3.78 µM
TGI (UACC-257 melanoma): > 100 µM
GI50 (U251 CNS): 2.95 µM
TGI (U251 CNS): 12.8 µM
GI50 (HT29 colon): 3.34 µM
TGI (HT29 colon): > 100 µM
GI50 (OVCAR-3 ovarian): 2.76 µM
TGI (OVCAR-3 ovarian): > 100 µM
GI50 (MCF7 breast): 3.37 µM
TGI (MCF7 breast): > 100 µM
GI50 (A549 NSCLC): 3.64 µM
TGI (A549 NSCLC): > 100 µM
GI50 (NCI-H226 lung): 3.73 µM
TGI (NCI-H226 lung): > 100 µM
GI50 (OVCAR-4 ovarian): 4.39 µM
TGI (OVCAR-4 ovarian): > 100 µM
GI50 (MALME-3M melanoma): 3.11 µM
TGI (MALME-3M melanoma): > 100 µM
GI50 (OVCAR-8 ovarian): 4.31 µM
TGI (OVCAR-8 ovarian): > 100 µM
GI50 (COLO 205 colon): 4.32 µM
TGI (COLO 205 colon): > 100 µM
GI50 (OVCAR-5 ovarian): 5.28 µM
TGI (OVCAR-5 ovarian): > 100 µM
GI50 (SK-MEL-5 melanoma): 2.87 µM
TGI (SK-MEL-5 melanoma): 9.54 µM
GI50 (NCI-H23 lung): 3.28 µM
TGI (NCI-H23 lung): 48.9 µM
GI50 (HS 578T breast): 3.51 µM
TGI (HS 578T breast): 31.1 µM
GI50 (BT-549 breast): 11.5 µM
TGI (BT-549 breast): > 100 µM
GI50 (SF-539 CNS): 3.28 µM
TGI (SF-539 CNS): 12.8 µM
GI50 (SR leukemia): 2.52 µM
TGI (SR leukemia): > 100 µM
GI50 (NCI/ADR-RES ovarian): 3.45 µM
TGI (NCI/ADR-RES ovarian): > 100 µM
GI50 (RPMI-8226 leukemia): 3.51 µM
TGI (RPMI-8226 leukemia): > 100 µM
GI50 (HL-60(TB) leukemia): 3 µM
TGI (HL-60(TB) leukemia): 40.2 µM
GI50 (A498 renal): 3.59 µM
TGI (A498 renal): 18.2 µM
GI50 (DU-145 prostate): 6.81 µM
TGI (DU-145 prostate): > 100 µM
